The values below come from patent publication US9963462B2 (priority 2015, dated 2018).

The target in assay [1] is SNAP-hSPR (sepiapterin reductase, SPR) (Homo sapiens, UniProt P35270). Nature of the assay: biochemical. It counts as binding. The conditions noted are these: terbium labelled SNAP-hSPR / SSZ labelled SNAP-EGFP; read-out: hTR-FRET IC50.
The subject of assay [2] is BH4 levels in SK-N-BE (2) cells. The experiment in a line: SKN-N-BE (2) cellular assay, BH4 levels by LC-MS. The conditions noted are these: Homo sapiens, SKNBE2, read-out: SK-N-BE(2) IC50, SK-N-BE (2) cells, BH4 levels by LC-MS. The assay is classed as cell-based.

Sequence of SNAP-hSPR (sepiapterin reductase, SPR) (P35270 whole entry): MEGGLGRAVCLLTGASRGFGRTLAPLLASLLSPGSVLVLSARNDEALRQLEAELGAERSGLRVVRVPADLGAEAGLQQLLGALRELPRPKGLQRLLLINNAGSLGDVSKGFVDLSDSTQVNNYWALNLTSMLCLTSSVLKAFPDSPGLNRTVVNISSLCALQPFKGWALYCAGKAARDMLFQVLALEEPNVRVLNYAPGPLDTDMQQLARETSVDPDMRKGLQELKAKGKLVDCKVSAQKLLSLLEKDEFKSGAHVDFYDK

As a reminder, the IC50 is the concentration that gives 50% inhibition. In the case of `Cc1c(C(=O)N2CCN(C(=O)OC(C)(C)C)CC23CCC3)cnn1-c1nn2cccc2c(=O)[nH]1` [Q-0798], the IC50 in assay [1] was 2 nM; in assay [2], 300 nM.
Consider `Cc1c(C(=O)N2CCC(C)(C)C2)cnn1-c1nc2ccsc2c(=O)[nH]1` [Q-0380], for which the IC50 in assay [1] stood at 7 nM; in assay [2], 2700 nM.
With `Cc1c(C(=O)N2C3CCC2CC(O)(c2ccccc2)C3)cnn1-c1nc2c(c(=O)[nH]1)CCC2` (stereo not shown) [Q-0509], the IC50 in assay [1] turned out to be 3 nM; in assay [2], 68 nM.
For the molecule `Cc1c(C(=O)N2CCC(C(F)(F)F)CC2)ccnc1-c1nc2ccsc2c(=O)[nH]1` [Q-0564], the results for the IC50 in assay [1] and in assay [2] were 200 nM and 4000 nM, respectively.
On to `Cc1c(C(=O)N2CCC(c3nc4ccccc4s3)CC2)cnn1-c1nc2ccsc2c(=O)[nH]1` [Q-0559], for which the figures for the IC50 in assay [1] and in assay [2] were 7 nM and 38 nM, respectively.
Turning to `Cc1c(C(=O)N2CCC[C@@H]2C(=O)OCc2ccccc2)cnn1-c1nc2c(c(=O)[nH]1)CCC2` [Q-0496], the 50% inhibitory concentration (IC50) in assay [1] stood at 7 nM; in assay [2], 400 nM.
Turning to `Cc1c(C(=O)N2CCc3ccccc3C2)cnn1-c1nc2sccc2c(=O)[nH]1` [Q-0382], the IC50 in assay [1] was found to be 3 nM; in assay [2] it was 100 nM.
Consider `CCC(C#N)C1CCN(C(=O)c2cnn(-c3nn4cccc4c(=O)[nH]3)c2C)CC1` (stereo not shown) [Q-0826], for which the values for the IC50 in assay [1] and in assay [2] were 1 nM and 100 nM, respectively.
In the case of `Cc1cc(=O)[nH]c(-n2ncc(C(=O)N3c4ccccc4C[C@H]3C)c2C)n1` (single isomer, unassigned) [Q-0361], the IC50 in assay [1] worked out at 10 nM; in assay [2], 600 nM.
Take `Cc1nc(-n2ncc(C(=O)N3CCc4ccccc4C3)c2C)[nH]c(=O)c1Cl` [Q-0456]: the results for the IC50 in assay [1] and in assay [2] were 8 nM and 500 nM, respectively.
For `Cc1cc(=O)[nH]c(-n2ncc(C(=O)N3CCC(C(F)(F)F)CC3)c2C(C)C)n1` [Q-0444], the IC50 in assay [1] was found to be 10 nM; in assay [2], 2700 nM.
The like results for `Cc1c(C(=O)N2CCN(C)c3ccccc32)cnn1-c1nc2c(c(=O)[nH]1)CCC2` [Q-0731] were, in that order, 2 nM and 53 nM.
`Cc1cc(=O)[nH]c(-n2ccc(C(=O)N3CCc4ccccc43)n2)n1` [Q-0376]: the figures for the IC50 in assay [1] and in assay [2] were 30 nM and 8200 nM, respectively.
Turning to `O=C(c1ccc(-c2nc3c(c(=O)[nH]2)CCC3)s1)N1CCC(C(F)(F)F)CC1` [Q-0609, 2-(5-(4-(trifluoromethyl)piperidine-1-carbonyl)thiophen-2-yl)-6,7-dihydro-3H-cyclopenta[d]pyrimidin-4(5H)-one], the IC50 in assay [1] came out at 1 nM; in assay [2] it was 84 nM.
Turning to `COC(=O)c1cnn(-c2nn3c(F)ccc3c(=O)[nH]2)c1C` [Q-0619], the IC50 in assay [1] stood at 3 nM; in assay [2] it was 300 nM.
On to `Cc1cc(=O)[nH]c(-n2ncc(C(=O)N3CCc4ccccc4C3)c2C(F)F)n1` [Q-0332], for which the IC50 is 10 nM in assay [1] and 2500 nM in assay [2].
As for `COC1(c2ccccc2)CCN(C(=O)c2cnn(-c3nc4c(c(=O)[nH]3)CCC4)c2C)CC1` [Q-0514], the IC50 is 7 nM in assay [1] and 57 nM in assay [2].
For `Cc1c(C(=O)N2CCN(c3ccc(Cl)c(Cl)c3)CC2)cnn1-c1nn2cccc2c(=O)[nH]1` [Q-0828], the IC50 is 4 nM in assay [1] and 50 nM in assay [2].
In the case of `Cc1c(C(=O)N2CCC(C3CC3)CC2)cnn1-c1nc2ccsc2c(=O)[nH]1` [Q-0698], the IC50 in assay [1] amounted to 1 nM; in assay [2], 71 nM.
As to `Cc1c(C(=O)N2CC(c3ccc(F)c(F)c3)C2)cnn1-c1nc2c(c(=O)[nH]1)CCC2` [Q-0749], the IC50 in assay [1] came out at 3 nM; in assay [2] it was 50 nM.
Regarding `Cc1cc(=O)[nH]c(-n2ncc(C(=O)N3CCc4ccccc4[C@H]3C)c2C)n1` (single isomer, unassigned) [Q-0340], the IC50 in assay [1] was found to be 7 nM; in assay [2], 1100 nM.
`Cc1cc2nc(-n3ncc(C(=O)N4CCC(C(F)(F)F)CC4)c3C)[nH]c(=O)c2s1` [Q-0409]: the values for the IC50 in assay [1] and in assay [2] were 200 nM and 25000 nM, respectively.
Regarding `Cc1c(C(=O)N2CCC(CC(F)(F)F)CC2)cnn1-c1nn2cc(F)cc2c(=O)[nH]1` [Q-0747], the IC50 in assay [1] was 8 nM; in assay [2], 800 nM.
In the case of `Cc1c(C(=O)N2CCC(c3ccccc3)CC2)cnn1-c1nc2ccsc2c(=O)[nH]1` [Q-0495], the values for the IC50 in assay [1] and in assay [2] were 5 nM and 51 nM, respectively.
Turning to `Cc1c(C(=O)N2CC3CN(C)CC3C2)cnn1-c1nn2cccc2c(=O)[nH]1` (stereo not shown) [Q-0847], the results for the IC50 in assay [1] and in assay [2] were 20 nM and 8800 nM, respectively.
`Cc1c(C(=O)N2CCC3(CC2)OCCO3)cnn1-c1nn2cccc2c(=O)[nH]1` [Q-0795]: the values for the IC50 in assay [1] and in assay [2] were 2 nM and 500 nM, respectively.
The like results for `O=C(c1cnn(-c2nc3c(c(=O)[nH]2)CCC3)c1)N1CCC(CC(F)(F)F)CC1` [Q-0744] were, in that order, 3 nM and 100 nM.
Consider `Cc1c(C(=O)N2CCCC2(C)C)cnn1-c1nc2ccsc2c(=O)[nH]1` [Q-0397], for which the results for the IC50 in assay [1] and in assay [2] were 20 nM and 2300 nM, respectively.
Take `Cc1cc(=O)[nH]c(-n2ncc(C(=O)NC34CC5CC(CC(C5)C3)C4)c2C)n1` [Q-0305]: the figures for the IC50 in assay [1] and in assay [2] were 30 nM and 4600 nM, respectively.
`Cc1c(C(=O)N2CCC(c3nc4ccccc4s3)CC2)ccnc1-c1nc2ccsc2c(=O)[nH]1` [Q-0605]: the values for the IC50 in assay [1] and in assay [2] were 200 nM and 10000 nM, respectively.
With `Cc1c(C(=O)N2CC[C@@H](N(C)C(=O)OC(C)(C)C)C2)cnn1-c1nn2cccc2c(=O)[nH]1` [Q-0736], the values for the IC50 in assay [1] and in assay [2] were 2 nM and 200 nM, respectively.
The like results for `Cc1c(C(=O)N2CCC(c3nc4ccccc4s3)CC2)cnn1-c1nc2c(c(=O)[nH]1)CCC2` [Q-0499] were, in that order, 20 nM and 44 nM.
The corresponding values for `Cc1cc(=O)[nH]c(-n2nc(C)c(CCC(=O)N3CCCC3)c2C)n1` [Q-0281] are 60 nM and 9000 nM.
As to `O=C(c1cnn(-c2nc3c(c(=O)[nH]2)CCC3)c1)N1CCN(c2ccc(F)cc2F)CC1` [Q-0735], the values for the IC50 in assay [1] and in assay [2] were 3 nM and 95 nM, respectively.
With `Cc1c(C(=O)N2CCC(C#N)(c3ccccc3)CC2)cnn1-c1nc2sccc2c(=O)[nH]1` [Q-0561], the IC50 in assay [1] turned out to be 4 nM; in assay [2] it was 11 nM.
With `Cc1c(C(=O)N2CCC(C(C)(C)C)CC2)cnn1-c1nc2ccsc2c(=O)[nH]1` [Q-0399], the IC50 was 3 nM in assay [1] and 24 nM in assay [2].
The corresponding values for `O=C(O)c1cn(-c2nn3cccc3c(=O)[nH]2)nn1` [Q-0774] are 200 nM and 10000 nM.
With `Cc1c(C(=O)N2CCN(c3ccccc3)CC2)cnn1-c1nn2cccc2c(=O)[nH]1` [Q-0802], the values for the IC50 in assay [1] and in assay [2] were 1 nM and 67 nM, respectively.
Turning to `Cc1c(C(=O)O)nnn1-c1nn2cccc2c(=O)[nH]1` [Q-0779], the IC50 is 20 nM in assay [1] and 10000 nM in assay [2].
As to `Cc1c(C(=O)N2CCC3(CCCC3)C2)cnn1-c1nn2cccc2c(=O)[nH]1` [Q-0808], the IC50 in assay [1] is 1 nM; in assay [2] it was 200 nM.
With `Cc1c(C(=O)N(C)Cc2ccc3ncccc3c2)cnn1-c1nc2c(c(=O)[nH]1)CCC2` [Q-0506], the IC50 was determined as 3 nM in assay [1] and 200 nM in assay [2].
On to `Cc1c(C(=O)N2CCC3(CC2)CC3c2nnc(-c3ccccc3)o2)cnn1-c1nc2c(c(=O)[nH]1)CCC2` (stereo not shown) [Q-0697], for which the IC50 in assay [1] was determined as 4 nM; in assay [2], 200 nM.
As for `Cc1cc(=O)[nH]c(-n2ncc(C(=O)N(C)C3CCc4ccccc43)c2C)n1` (stereo not shown) [Q-0374], the IC50 in assay [1] came to 9 nM; in assay [2], 1200 nM.
Take `Cc1c(C(=O)N2CCN(c3ccc(C(F)(F)F)cc3)CC2)cnn1-c1nn2cccc2c(=O)[nH]1` [Q-0833]: the results for the IC50 in assay [1] and in assay [2] were 6 nM and 200 nM, respectively.
For the molecule `Cc1cc(=O)[nH]c(-n2ncc(C(=O)N3CCN(c4ccccn4)CC3)c2Cc2ccccc2)n1` [Q-0369], the IC50 in assay [1] came out at 200 nM; in assay [2], 28000 nM.
`Cc1c(C(=O)N2CCC(c3c[nH]c4ccccc34)CC2)cnn1-c1nn2c(F)ccc2c(=O)[nH]1` [Q-0624]: the IC50 in assay [1] was found to be 2 nM; in assay [2], 32 nM.
As to `Cc1c(C(=O)N2CCC(c3ccccc3)C2)cnn1-c1nc2c(c(=O)[nH]1)CCC2` (stereo not shown) [Q-0510], the IC50 amounted to 5 nM in assay [1] and 100 nM in assay [2].
The corresponding values for `Cc1cc(=O)[nH]c(-n2ncc(C(=O)NCc3cnccn3)c2C)n1` [Q-0344] are 70 nM and 23000 nM.
With `O=C(c1cnn(-c2nc3sccc3c(=O)[nH]2)c1)N1CCC(C2CC2)CC1` [Q-0751], the IC50 in assay [1] was found to be 3 nM; in assay [2] it was 200 nM.
On to `O=C(c1cnn(-c2nn3cccc3c(=O)[nH]2)c1)N1CCC(OCC(F)(F)F)CC1` [Q-0783], for which the IC50 in assay [1] was 2 nM; in assay [2], 300 nM.
As to `COC(=O)c1ccc(-c2nc3c(c(=O)[nH]2)CCC3)nc1` [Q-0471], the values for the IC50 in assay [1] and in assay [2] were 80 nM and 16000 nM, respectively.
As to `Cc1c(C(=O)N(CCc2ccccc2)CC(O)C(F)(F)F)cnn1-c1nc2c(c(=O)[nH]1)CCC2` (stereo not shown) [Q-0502], the results for the IC50 in assay [1] and in assay [2] were 20 nM and 400 nM, respectively.
As for `O=C(c1ccn(-c2nc3ccsc3c(=O)[nH]2)n1)N1CCc2ccccc2C1` [Q-0388], the IC50 in assay [1] amounted to 100 nM; in assay [2] it was 36000 nM.
The corresponding values for `Cc1c(C(=O)N2CCC3OCCCC3C2)cnn1-c1nc2ccsc2c(=O)[nH]1` (stereo not shown) [Q-0557] are 8 nM and 600 nM.
Regarding `Cc1c(C(=O)N2CC(CN)C2)cnn1-c1nc2ccsc2c(=O)[nH]1` [Q-0583], the IC50 came out at 100 nM in assay [1] and 3700 nM in assay [2].
As for `Cc1cc(=O)[nH]c(-n2nc(C)c(CCC(=O)Nc3ccc(Cl)cc3)c2C)n1` [Q-0009], the IC50 worked out at 300 nM in assay [1] and 22000 nM in assay [2].
